# Values of other authors, collected in patent publication US20240350480A1, “STABLE PHARMACEUTICAL COMPOSITION OF METHYLNALTREXONE FOR AN ORAL ADMINISTRATION” (Lupin Limited, priority 2023, published 2024).
# Conditions: oral administration
smiles,measurement,value
C[N+]1(CC2CC2)CC[C@]23c4c5ccc(O)c4O[C@H]2C(=O)CC[C@@]3(O)[C@H]1C5.[Br-] (stereo partly shown) [methylnaltrexone],Methylnaltrexone absorbed into the bloodstream,less than 5%
